The target in assay [1] is T1, CDK9/CyclinT1 (Homo sapiens, UniProt P50750).
T1 construct: purchased Carna
The experiment in a line: In vitro CDK9/CyclinT1 enzyme activity test (ADP-Glo). Conditions: 100 μM ATP, 25° C., 120 minutes. The format is biochemical. How it is done: CDK9/CyclinT1 kinase was purchased from Carna, ADP-Glo detection kit was purchased from Promega, and PKDTide substrate and kinase reaction buffer were purchased from Signalchem. Nivo multi-label analyzer (PerkinElmer).
The kinase buffer in the kit was used to dilute the enzyme, substrate, adenosine triphosphate and inhibitors.
The compound to be tested was diluted by 5 times for 8 concentrations with a discharge gun, ie., dilution from 50 μM to 0.65 nM, with a DMSO concentration of 5%, and replicated. 1 μL of each concentration gradient of the inhibitor, 2 μL CDK9/CyclinT1 enzyme (4 ng), 2 μL of a mixture of substrate and ATP (100 μM adenosine triphosphate, 0.2 μg/μL substrate) was added to the microplate, and the final concentration gradient of the compound was 10 μM dilution to 0.13 nM. The reaction system was placed at 25° C. for 120 minutes. After the reaction, 5 μL of ADP-Glo reagent was added to each well, and the reaction was allowed to continue at 25° C. for 40 minutes. After the reaction, 10 μL of kinase detection reagent was added to each well. After reacting at 25° C. for 30 minutes, a multi-label analyzer was used to read chemiluminescence. The integration time was 0.5 seconds.
Table 1 provides the enzymatic inhibitory activity of the compounds of the present invention on CDK9/CyclinT1.

The target of assay [2] is T2, CDK1/CyclinB1 (Homo sapiens, UniProt P06493).
T2 construct: purchased Promega
The experiment in a line: In vitro CDK1/CyclinB1 enzyme activity test (ADP-Glo). Conditions: 25 μM ATP, 25° C., 120 minutes. The format is biochemical. How it is done: CDK1/CyclinB1 kinase detection kit was purchased from Promega. Nivo multi-label analyzer (PerkinElmer).
(§1) Using the kinase buffer in the kit to dilute the enzyme, substrate, adenosine triphosphate and inhibitor.
The compound to be tested was diluted 5-fold to the 8th concentration with a discharge gun, that is, diluted from 50 μM to 0.65 nM, with a DMSO concentration of 5%, and replicated. Add 1 μL of each inhibitor concentration gradient, 2 μL CDK1/CyclinB1 enzyme (12.5 ng), 2 μL mixture of substrate and ATP (25 μM adenosine triphosphate, 0.2 μg/μL substrate) into the microplate, and the final concentration gradient of the compound is 10 μM dilute to 0.13 nM. The reaction system was placed at 25° C. for 120 minutes. After the reaction, add 5 μL of ADP-Glo reagent to each well, and continue the reaction at 25° C. for 40 minutes. After the reaction, add 10 μL of kinase detection reagent to each well. After reacting at 25° C. for 30 minutes, use a multi-label analyzer to read chemiluminescence. The integration time is 0.5 seconds.
Table 1 provides the CDK1/CyclinB1 enzymatic inhibitory activity of the compounds of the present invention.

The target of assay [3] is T3, CDK2/CyclinE1 (Homo sapiens, UniProt P24941).
T3 construct: purchased Promega
The assay can be described thus: In vitro CDK2/CyclinE1 enzyme activity test (ADP-Glo). The format is biochemical. To be noted: 150 μM ATP, 25° C., 60 minutes. How it is done:
CDK2/CyclinE1 kinase detection kit was purchased from Promega. Nivo multi-label analyzer (PerkinElmer).
as §1
The compound to be tested was diluted 5-fold to the 8th concentration with a discharge gun, that is, diluted from 50 μM to 0.65 nM, with a DMSO concentration of 5%, and replicated. Add 1 μL of each inhibitor concentration gradient, 2 μL CDK2/CyclinE1 enzyme (2 ng), 2 μL mixture of substrate and ATP (150 μM adenosine triphosphate, 0.1 μg/μL substrate) to the microplate, and the final concentration gradient of the compound is 10 μM dilution to 0.13 nM. The reaction system was placed at 25° C. for 60 minutes. After the reaction, add 5 μL of ADP-Glo reagent to each well, and continue the reaction at 25° C. for 40 minutes. After the reaction, add 10 μL of kinase detection reagent to each well. After reacting at 25° C. for 30 minutes, use a multi-label analyzer to read chemiluminescence. The integration time is 0.5 seconds.
Table 1 provides the CDK2/CyclinE1 enzymatic inhibitory activity of the compounds of the present invention.

Assay [4] concerns MV-4-11 cells. The experiment in a line: In vitro cell activity test, MV-4-11 proliferation (CellTiter-Glo). The format is cell-based. To be noted: Homo sapiens, MV4-11, 72 h, 3 days incubation. How it is done:
IMDM medium, fetal bovine serum, penicillin/streptomycin antibiotics were purchased from Promega (Madison, Wis.). The MV-4-11 cell line was purchased from the Cell Bank of the Chinese Academy of Sciences. Nivo multi-label analyzer (PerkinElmer).
Plant MV-4-11 cells in a white 96-well plate, 80 μL of cell suspension per well, which contains 6000 MV-4-11 cells. The cell plate was cultured overnight in a carbon dioxide incubator.
The compound to be tested was diluted 5-fold to the 8th concentration with a discharge gun, that is, diluted from 2 mM to 26 nM, and replicated. Add 78 μL of culture medium to the middle plate, and then transfer 2 μL of each well of the gradient dilution compound to the middle plate according to the corresponding position, and transfer 20 μL of each well to the cell plate after mixing. The final concentration of the compound is 10 μM to 0.13 nM. The cell plate was placed in a carbon dioxide incubator for 3 days.
Add 25 μL of Promega CellTiter-Glo reagent per well to the cell plate and incubate at room temperature for 10 minutes to stabilize the luminescence signal. Use PerkinElmer Nivo multi-label analyzer to read.

Structures can show the parent of a compound that is named as a salt.

T2 sequence (P06493 whole entry): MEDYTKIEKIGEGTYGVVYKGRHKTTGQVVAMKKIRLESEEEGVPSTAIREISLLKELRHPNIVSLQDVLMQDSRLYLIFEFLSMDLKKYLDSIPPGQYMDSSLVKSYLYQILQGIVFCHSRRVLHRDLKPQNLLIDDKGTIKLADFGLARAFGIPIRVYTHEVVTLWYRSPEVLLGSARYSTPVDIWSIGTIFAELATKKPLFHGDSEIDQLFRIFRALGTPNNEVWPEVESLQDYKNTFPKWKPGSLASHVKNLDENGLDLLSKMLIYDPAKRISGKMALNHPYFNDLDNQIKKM
T2 sequence (P14635 whole entry partner): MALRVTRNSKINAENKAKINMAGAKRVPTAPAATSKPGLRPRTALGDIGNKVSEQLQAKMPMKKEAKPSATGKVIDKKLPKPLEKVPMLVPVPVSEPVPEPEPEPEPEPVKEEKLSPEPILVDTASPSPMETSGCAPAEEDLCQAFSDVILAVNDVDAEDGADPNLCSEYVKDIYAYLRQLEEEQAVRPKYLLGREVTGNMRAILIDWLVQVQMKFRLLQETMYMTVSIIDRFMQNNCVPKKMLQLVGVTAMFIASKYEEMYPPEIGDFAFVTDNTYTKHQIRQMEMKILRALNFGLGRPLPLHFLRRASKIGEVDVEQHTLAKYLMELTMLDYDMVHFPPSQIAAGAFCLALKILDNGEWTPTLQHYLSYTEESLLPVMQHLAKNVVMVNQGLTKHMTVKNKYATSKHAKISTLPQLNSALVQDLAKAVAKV
T1 sequence (P50750 whole entry): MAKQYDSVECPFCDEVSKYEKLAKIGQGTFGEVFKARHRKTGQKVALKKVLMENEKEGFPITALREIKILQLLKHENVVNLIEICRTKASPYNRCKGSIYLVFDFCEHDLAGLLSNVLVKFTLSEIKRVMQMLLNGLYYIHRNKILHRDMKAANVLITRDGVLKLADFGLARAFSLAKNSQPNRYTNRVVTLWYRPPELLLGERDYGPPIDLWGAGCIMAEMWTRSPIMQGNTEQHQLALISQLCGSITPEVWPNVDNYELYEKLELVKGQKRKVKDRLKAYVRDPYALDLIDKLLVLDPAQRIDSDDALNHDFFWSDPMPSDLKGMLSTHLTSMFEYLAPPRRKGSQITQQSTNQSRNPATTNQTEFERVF
T1 sequence (O60563 whole entry partner): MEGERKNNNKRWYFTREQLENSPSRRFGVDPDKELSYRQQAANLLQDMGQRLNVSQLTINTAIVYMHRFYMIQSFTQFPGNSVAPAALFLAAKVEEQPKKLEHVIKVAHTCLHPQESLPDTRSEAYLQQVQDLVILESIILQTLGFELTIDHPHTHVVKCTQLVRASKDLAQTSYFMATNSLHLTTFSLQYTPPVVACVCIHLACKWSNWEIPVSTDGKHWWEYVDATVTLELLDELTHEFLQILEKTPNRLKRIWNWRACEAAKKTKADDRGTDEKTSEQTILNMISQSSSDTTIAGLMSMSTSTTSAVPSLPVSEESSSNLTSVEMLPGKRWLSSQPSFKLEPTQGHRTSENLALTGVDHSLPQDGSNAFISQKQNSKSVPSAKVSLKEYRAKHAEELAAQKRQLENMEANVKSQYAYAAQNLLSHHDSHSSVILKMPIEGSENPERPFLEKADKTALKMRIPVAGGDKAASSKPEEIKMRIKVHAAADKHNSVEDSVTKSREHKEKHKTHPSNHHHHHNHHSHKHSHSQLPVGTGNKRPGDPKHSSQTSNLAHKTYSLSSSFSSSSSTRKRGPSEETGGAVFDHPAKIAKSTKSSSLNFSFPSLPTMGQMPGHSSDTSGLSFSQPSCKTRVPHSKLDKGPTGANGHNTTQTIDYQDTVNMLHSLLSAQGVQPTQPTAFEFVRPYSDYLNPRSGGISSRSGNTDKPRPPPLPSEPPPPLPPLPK

As for `CC(C)N1CCC(c2cc3c(-c4cnn(CC5CC5)c4)c(Cl)cnc3[nH]2)CC1` [4 (hydrochloride)], the IC50 in assay [1] stood at 0.0103 µM; in assay [2], 0.756 µM; in assay [3] it was 0.334 µM; in assay [4] it was 0.0948 µM.
Take `COCCN1CCC(c2cc3c(-c4cnn(CC5CC5)c4)c(Cl)cnc3[nH]2)CC1` [5 (hydrochloride)]: the IC50 in assay [1] came out at 0.0106 µM; in assay [2], 1.55 µM; in assay [3], 0.235 µM; in assay [4], 0.0638 µM.
The matching figures for `CN1CCC(c2cc3c(-c4cnn(CC5CC5)c4)c(Cl)cnc3[nH]2)CC1` [Compound 2 (formate)]: 0.0071 µM, 0.255 µM, 0.0794 µM and 0.0357 µM.
Regarding `c1cc(-c2cnn(CC3CC3)c2)c2cc(C3CCNCC3)[nH]c2n1` [Compound 3 (formate)], the IC50 in assay [1] was determined as 0.018 µM; in assay [2], 0.879 µM; in assay [3] it was 0.933 µM; in assay [4], 0.252 µM.
As to `CCN1CCC(c2cc3c(-c4cnn(CC5CC5)c4)c(Cl)cnc3[nH]2)CC1` [Compound 3 (hydrochloride)], the IC50 came out at 0.0141 µM in assay [1], 0.416 µM in assay [2], 0.105 µM in assay [3] and 0.0074 µM in assay [4].
For `COCC(C)N1CCC(c2cc3c(-c4cnn(CC5CC5)c4)c(Cl)cnc3[nH]2)CC1` (stereo not drawn) [Compound 6 (formate)] the same measures were 0.0096 µM, 1.03 µM, 0.394 µM and 0.052 µM.
Consider `Clc1cnc2[nH]c(C3CCNCC3)c(Cl)c2c1-c1cnn(CC2CC2)c1` [Compound 7], for which the IC50 in assay [1] is 0.0052 µM; in assay [2], 0.366 µM; in assay [3] it was 0.113 µM; in assay [4] it was 0.0866 µM.
For `Clc1cnc2[nH]c(C3CCNCC3)cc2c1-c1cnn(CC2CCCC2)c1` [Compound 8 (formate)] the same measures were 0.0071 µM, 0.178 µM, 0.075 µM and 0.0546 µM.
For `Clc1cnc2[nH]c(C3CCNCC3)cc2c1-c1cnn(Cc2ccccc2)c1` [Compound 9 (formate)] the same measures were 0.0063 µM, 0.133 µM, 0.105 µM and 0.0673 µM.
As to `Clc1ccccc1Cn1cc(-c2c(Cl)cnc3[nH]c(C4CCNCC4)cc23)cn1` [Compound 10 (formate)], the IC50 in assay [1] turned out to be 0.0069 µM; in assay [2] it was 0.0879 µM; in assay [3], 0.549 µM; in assay [4], 0.0791 µM.
For `Clc1cccc(Cn2cc(-c3c(Cl)cnc4[nH]c(C5CCNCC5)cc34)cn2)c1` [Compound 11 (formate)] the same measures were 0.0064 µM, 0.12 µM, 0.214 µM and 0.0648 µM.
For `Clc1ccc(Cn2cc(-c3c(Cl)cnc4[nH]c(C5CCNCC5)cc34)cn2)cc1` [Compound 12] the same measures were 0.0077 µM, 0.26 µM, 0.549 µM and 0.286 µM.
Take `Clc1cnc2[nH]c(C3CCNCC3)nc2c1-c1cnn(CC2CC2)c1` [Compound 14]: the values for the IC50 in assay [1], in assay [3] and in assay [4] were 0.0384 µM, 1.36 µM and 0.464 µM, respectively.

These data come from patent US20220267321A1, “AZAINDOLE PYRAZOLE COMPOUNDS AS CDK9 INHIBITORS” (MEDSHINE DISCOVERY INC., priority 2019, published 2022).
